Measured values published in patent US10391080B2, “Ketorolac for the treatment of cancer” (Cipla Limited, priority 2016, dated 2019).
Like-named read-outs stand apart in the source and are kept apart here.

Test system: 10 human tumor xenograft-derived cell suspensions or tumor cell lines of renal cancer
Assay: In vitro 3D assay, clonogenic assay, whole panel
Type: cell-based
Settings: geometric mean of 10 renal tumor models, 3D colony formation
Method: Ketorolac was characterized for its ability to inhibit anchorage independent growth and ex vivo colony formation of tumor cells in semi-solid medium. The compound was tested against 10 human tumor xenograft-derived cell suspensions or tumor cell lines of renal cancer.
Cell lines were routinely passaged one or twice weekly. […] The percentage of viable cells was determined in a Neubauer-hemocytometer using trypan blue exclusion.
Tumor xenografts (patient-derived, as well as cell line-derived xenografts) were passaged as subcutaneous xenografts in NMRI nu/nu mice. At a tumor volume of 400-1000 mm^3 tumor-bearing mice were sacrificed and tumors were collected under sterile conditions without delay according to the relevant Oncotest SOPs and the relevant animal welfare guidelines published by the FELASA and the GV-SOLAS. […] The percentage of viable cells was determined in a Neubauer-hemocytometer using trypan blue exclusion. Aliquots of the cells were frozen down, and stored in liquid nitrogen. On each day of an experiment, a frozen aliquot of tumor cells was thawed and used for preparation of assay plates.
The clonogenic assay was carried out in a 96 well plate format using ultra low attachment plates. […] Every plate included six untreated control wells and drug-treated groups in duplicate at 9 concentrations. […] At the time of maximum colony formation, counts were performed with an automatic image analysis system (Celllnsight NXT, Thermo Scientific). 48 hours prior to evaluation, vital colonies were stained with a sterile aqueous solution of 2-(4-iodophenyl)-3-(4-nitrophenyl)-5-phenyltetrazolium chloride (1 mg/ml, 100 μl/well).

Work on `O=C(c1ccccc1)c1ccc2n1CCC2C(=O)O` (racemic) [Ketorolac, (±)-5-benzoyl-2,3-dihydro-1H-pyrrolizine-1-carboxylic acid] yielded an IC50 (Homo sapiens, read-out: Absolute IC50, geometric mean) of 2040 µM, an IC50 (Homo sapiens, read-out: Relative IC50, geometric mean (mean relative IC50)) of 2040 µM and an IC50 (read-out: Relative IC50, geometric mean (mean relative IC50)) of 2080 µM.
